1 compound from patent US20230094922A1, “METHODS OF THERAPEUTIC PROGNOSTICATION” (GENETIKAPLUS LTD., priority 2020, published 2023) can be followed below.

The structures appear in SMILES notation.

In the assay the test system is iPSC-derived cortical neurons. Briefly: Pre- and post-synaptic marker (Synapsin, PSD95) puncta and colocalization imaging analysis. It is filed as cell-based, human. The following applies: for intact synapses (colocalization of pre- and post-synaptic terminals), treated vs untreated: 7 days after treatment (Bupropion also 3 days). The procedure:
iPSC differentiation into neurons-iPSCs were seeded at a density of 3×10^6 cells/well on a hESC-qualified Matrigel pre-coated 6-well plate and incubated at 37° C., 5% CO2 overnight. Differentiation was initiated the following day (day 0) after verifying that 100% confluency was reached. Differentiation media was added daily according to the following order: […]7 (day 15 onward) similar to a previously published protocol developed by for rapid differentiation to cortical neurons. The components of the described media, Q1-7, are provided in Appendix 1. Cells were assessed for differentiation efficiency and cell death on a daily basis. On day 9, differentiated neurons were re-plated on either 96-well plates (destined for staining) or 12-well plates (destined for RNA extraction) that were coated with 15 μg/mL Poly-ornithine diluted in PBS (overnight incubation at 37° C.), followed by 1 μg/mL Laminin and 2 μg/mL Fibronectin diluted in PBS (overnight incubation at 37° C.): Neurons were first rinsed with pre-warmed PBS and 1 ml/well of Accutase was added for 35 minutes at 37° C., 5% CO2. DNAse1 (0.5 mg/mL) was then added for 10 additional minutes. 3 ml of pre-warmed Neurobasal media was added to each well and neurons were gently collected using a 5 ml […]. Wells were then verified for the presence of any remaining neurons. Neurons were spun down and resuspended in Q6 media. Neurons were seeded at a density of 150,000 cells/cm^2 placed back at 37° C. Following four hours of incubation, media was changed to Q6 media (150 μl per 96-well and 1 ml per 12-well). […] For dendritic arborization analysis, pre/post-synaptic markers and colocalization analysis; α-Syn, PSD95 and MAP2 primary antibodies were used. Following washes, fluorophore-coupled secondary antibodies were incubated in the blocking solution for 1 hour at room temperature. The cells were counter-stained with 4',6-diamidino-2-phenylindole (DAPI) for nuclei detection for 15 minutes at room temperature followed by washes with PBS. Imaging was performed using Nikon Spinning Disk Confocal microscope. For imaging of pre- and post-synaptic markers, images were acquired with a 100× objective in z-stacks. For dendritic arborization analysis, images were acquired with a 20× objective in z-stacks. For imaging of dendritic spines, during culture treatment described in materials and methods, cells were infected at Day 20 with human syn-GFP or mKate virus and stained for GFP or mKate. Cells were fixed as described at day 35 and stained with antibodies against GFP or mKate respectively. Images were acquired using the Nikon Confocal Alit with a 60× objective and a 2× digital zoom in z-stacks and using the Nikon spinning disk Microscope with a 100× objective in z-stacks. Neuronal and synaptic morphology was assessed using the Neurolucida software, pre- and post-synaptic marker analysis was performed using CellProfiler and total dendritic length was measured using Fiji software. Immunohistochemical examination was carried out on the induced neuronal cells.

Regarding `CNCCC=C1c2ccccc2CCc2ccccc21` [Nortriptyline, 1-Propanamine, 3-(10,11-dihydro-5H-dibenzo[a,d]cyclohepten-5-ylidene)-N-methyl-], under “after treatment”, the “density of post-synaptic terminals (PSD95 puncta), responders vs non-responders” value is recorded as “increase in density was also present”. Also, where the note is “after treatment”, the “intact synapses, responders vs non-responders” value is “significantly more intact synapses”. The “intact synapses (colocalization of pre- and post-synaptic terminals), treated vs untreated” value is reported as “no change or even a slight decrease” (neurons from non-responders) and “significantly upregulated” (neurons from responders). In addition, under “neurons from responders, 7 days after treatment”, the “density of post-synaptic terminals (distance between PSD95 puncta), after vs before treatment” value is recorded as “significant increase in density”.
